# Experimental data reported in patent publication US11419843B2, “Small molecule BCL-2 functional converters as cancer therapeutics” (Oregon State University, priority 2016, dated 2022).
# Entries after “also recorded” stand apart in the source; their conditions may differ. Where two headings read alike, the source gives them in different places.
# How the values were obtained:
# [1] = test system: Bcl-2 low and high expressing Jurkat lymphoma cells (Jurkat/Vector, Jurkat/Bcl-2); test: Cell viability in Bcl-2 low and high expressing Jurkat cells; assay type: cell-based, human
# [2] = test system: MDA-MB-231/Vector and MDA-MB-231/Bcl-2 cells; test: Viability screening assay in MDA-MB-231 cells with high and low Bcl-2 (CellTiter Glo); assay type: cell-based, human; details: for Bcl-2 selective reduction in viability, MDA-MB-231/Bcl-2 vs MDA-MB-231/Vector: 10 μM, 10% serum; for Bcl-2 dependent reduction in viability, MDA-MB-231/Bcl-2 vs Vector: 10% FBS
# Experimental: In one example, a triple negative breast cancer cell line, MDA-MB-231, was used for screening these libraries. […] At the end of the assay, cell viability was determined using the cell titer Glo assay. […] A hit was defined as a compound inducing more than 20% reduction in viability of MDA-MB-231/Bcl-2 cells, compared to vector controls (MDA-MB-231/Vector). In the next step these shortlisted small molecules were tested for their ability to convert the conformation of Bcl-2 into a pro-apoptotic one.
# To screen for Bcl-2 selective compounds, MDA-MB-231 cells (MDA-MB-231/Vector and MDA-MB-231/Bcl-2) were plated at 4000 cells per well in a 96 well black opaque plate. The day after plating the cells, treatment from the library plates was done so as to add 1 μL of the compound into the cells, resulting in 10 μM concentration. For non-specific […], 25 nM of staurosporin was used. […] Post treatment viability was assessed by CellTiter Glo Cell Viability assay (Promega Inc., Madison, Wis.) as per manufacturer instructions.
# Viability for test compounds in each cell line (MDA-MB-231/Vector and MDA-MB-231/Bcl-2) was normalized to their respective vehicle treatments. Compounds that had at least 20% less viability in the MDA-MB-231/Bcl-2 cell line than the MDA-MB-231/Vector cell line were selected as initial hits and shortlisted for revalidation. Revalidated compounds were reordered for further testing and characterization. All data analyses were performed using Microsoft Excel.
# [3] = test system: MDA-MB-468 cells with or without Bcl-2 expression; test: Viability of MDA-MB-468 cells with Bcl-2 knockdown; assay type: cell-based, human; details: 10% FBS; for Effect of Bcl-2 knockdown on viability effect in MDA-MB-468 cells: 48 h
# Experimental: For Bcl-2 knockdown experiments, MDA-MB-468 cells were seeded at 4,000 cells per well in a 96 well black plate. The day after seeding, cells were subjected to Bcl-2 knockdown with 25 ng siRNAs (Dharmacon Research, Lafayette, Colo.) or 25 ng control siRNA against luciferase (Dharmacon Research, Lafayette, Colo.) using Dharmafect as transfecting reagent. After 72 h of transfection time, cells were treated with indicated compounds for 48 h and viability was assayed with CellTiter Glo Luminescent Cell Viability Assay (Promega, Madison, Wis.).
# [4] = test system: normal mammary epithelial cells (MCF-10A and HMECs); test: Viability of normal mammary epithelial cells; assay type: cell-based, human
# Excerpt: FIG. 9F depicts viability of methotrexate treated breast cancer cell line (ZR-75-1) in comparison to normal mammary epithelial cells (MCF-10A and HMECs).
# [5] = test system: MDA-MB-231/Vector and MDA-MB-231/Bcl-2 cells; test: Clonogenic survival of MDA-MB-231 cells; assay type: cell-based, human
# Bcl-2 loop domain = Bcl-2 loop domain (Homo sapiens, UniProt P10415); test: Limited proteolysis of GST tagged Bcl-2 loop domain with trypsin; assay type: biochemical; details: for Proteolysis of Bcl-2 loop domain: 50 μM, trypsin 1, 2, 4 and 8 min
# Experimental: FIG. 11B depicts proteolysis of Bcl-2 loop domain in the presence of methotrexate. GST tagged BCl-2 loop domain was incubated with 1 μM methotrexate at the indicated times to determine if methotrexate interaction with loop domain has an effect on the proteolysis pattern upon co incubation with trypsin.
# Purified GST tagged Bcl-2 loop domain was incubated with 50 μM BFC1108 at the indicated times to determine if BFC1108 interaction with loop domain has an effect on the proteolysis pattern upon co-incubation with trypsin.
# FIG. 22B depicts limited proteolysis of Bcl-2 loop domain in the presence of BFC1103.
# GST-Bcl-2 and GST only fragments (60 μg) were incubated with 0.1% DMSO or BFC1103 (50 μM) for 1 h and proteolyzed by 3 μg/ml of trypsin for 1, 2, 4 and 8 min. Reactions were quenched by the addition of laemmli buffer. The resulting protease cleavage fragments were resolved on a 12% SDS-PAGE gel and visualized by coomassie blue staining.
# GST-Bcl-2 loop71 and GST only fragments (60 μg) were incubated with 0.1% DMSO or BFC1103 (50 μM) for 1 h and proteolyzed by 3 μg/ml of trypsin for 1, 2, 4 and 8 min. Reactions were quenched by the addition of Laemmli buffer. The resulting protease cleavage fragments were resolved on a 12% SDS-PAGE gel and visualized by Coomassie blue staining.
# [6] = test system: WT MEF, Bax−/− MEF, Bak−/− MEF and Bax−/− Bak−/− MEF cells; test: Viability of MEF cells with or without Bax or Bak; assay type: cell-based, mouse; details: 24 h, 10% serum; for Bax/Bak dependence of effect on MEF viability: 1 μM, WT, Bak−/− and DKO MEF; for viability at 1 µM: Mus musculus, MEF, normalized to vehicle
# Experimental: WT MEF, BAX^−/− MEF, BAK^−/− MEF and Bax^−/− Bak^−/− MEF cells were treated with MTX at 1 μM concentration for 24 h in 10% serum conditions. Viability was assessed using the Glo assay. MTX treatments were normalized to 100% of Vehicle.
# FIG. 17C WT MEF, Bax−/− MEF, Bak−/− MEF and Bax−/− Bak−/− MEF cells were treated with 1 μM BFC1108 for 24 h in 10% FBS medium and viability was assessed using cell titer glo assay.
# WT MEF, Bax^−/− MEF, Bak^−/− MEF and Bax^−/− Bak^−/− MEF cells were treated with 1 μM BFC1103 for 24 h in 10% FBS medium and viability was assessed using cell titer glo assay.
# H460 cells = test: JC-1 staining of mitochondrial membrane potential; assay type: cell-based, human; details: 16 h, 10% FBS, 10 μM for MTX and BFC1103
# Experimental: JC-1 was used to stain live cells undergoing treatment with MTX at 10 μM for 16 h and images taken with FITC and Rhodamine filters were overlayed. Cells stained orange have intact mitochondrial outer membrane and the ones turning green have compromised outer membrane indicating loss of membrane potential.
# FIG. 17D JC-1 stain was used to stain live H460 cells that were treated with […] for 16 h in 10% FBS containing medium and images taken with FITC and rhodamine filters were overlaid. Cells stained orange have intact mitochondrial outer membrane and the ones turning green have compromised outer membrane indicating loss of membrane potential.
# JC-1 stain was used to stain live H460 cells treated with 10 μM BFC1103 for 16 h in 10% FBS containing medium and images taken with FITC and rhodamine filters were overlaid. Cells stained orange have intact mitochondrial outer membrane and the ones turning green have compromised outer membrane indicating loss of membrane potential.
# Bcl-2 = Bcl-2 (Homo sapiens, UniProt P10415); test: Bcl-2 conformational change by Bcl-2 BH3 domain antibody and flow cytometry; details: 10 μM, 10% serum
# Experimental: MDA-MB231/Bcl-2 cells and H460 cells were exposed to MTX at 10 μM concentration for 24 h in a medium containing 10% serum. Change in Bcl-2 conformation was determined using Bcl-2 BH3 only anti-body followed by flow cytometric analysis.
# Change in conformation of Bcl-2 was determined by using Bcl-2 BH3 antibody followed by flow cytometric analysis.
# Change in conformation of Bcl-2 was determined by using Bcl-2 BH3 only antibody followed by flow cytometric analysis.
# When there is a conformational change in Bcl-2 protein, the BH3 domain is exposed and is detected by the Bcl-2 BH3 domain antibody.
# [7] = 10 μM, 48 h, colony formation for 2 weeks
# Bcl-2, sequence (P10415 whole entry, the tested form may be a part): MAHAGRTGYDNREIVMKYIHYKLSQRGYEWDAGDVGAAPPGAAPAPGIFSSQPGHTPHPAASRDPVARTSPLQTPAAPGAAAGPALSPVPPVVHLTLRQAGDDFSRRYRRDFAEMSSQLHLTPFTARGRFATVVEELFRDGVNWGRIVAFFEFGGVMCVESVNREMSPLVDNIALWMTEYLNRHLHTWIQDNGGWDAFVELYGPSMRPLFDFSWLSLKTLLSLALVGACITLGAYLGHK
# Bcl-2 loop domain, sequence (P10415 29-90 limits assumed): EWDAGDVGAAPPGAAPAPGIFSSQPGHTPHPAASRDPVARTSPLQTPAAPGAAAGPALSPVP
smiles,measurement,setting,value
"CCCCc1ccc(NC(=O)CN(Cc2ccccc2)S(C)(=O)=O)cc1 [BFC1103, N-2-benzyl-N-1-(4-butylphenyl)-N-2-(methylsulfo-nyl) glycinamide]","Bcl-2 dependent effect on viability, Jurkat/Bcl-2 vs control","[1]; 10 μM, 24 h, 10% serum","reduced the viability of Jurkat human T cell leukemia cells with high Bcl-2 expression, compared to control cells"
same,"Bcl-2 selective reduction in viability, MDA-MB-231/Bcl-2 vs MDA-MB-231/Vector",[2]; 24 h,Bcl-2 dependent reduction in viability of MDA-MB-231 cells; also recorded: Bcl-2 selective induction of cell death
same,Viability of MDA-MB-231 with increased Bcl-2 vs control cells under hypoxic conditions,[2]; hypoxic conditions,significant reduction in viability of MDA-MB-231 with increased Bcl-2 expression compared to the control cells
same,Effect of Bcl-2 knockdown on viability effect in MDA-MB-468 cells,[3],Suppression of Bcl-2 expression reduced the effect of BFC1103
same,Viability of normal mammary epithelial cells MCF-10A,"[4]; 24 h, 10% FBS",minimal effect on normal mammary epithelial cells (MCF-10A)
same,Clonogenic survival of MDA-MB-231 cells over-expressing Bcl-2 vs control cells,[5]; [7],"formed significantly fewer colonies, compared to control cells"
same,Proteolysis of Bcl-2 loop domain,Bcl-2 loop domain,delayed the proteolysis of the loop domain of Bcl-2
same,Bax/Bak dependence of effect on MEF viability,[6],"wild type MEF cells, MEF cells without Bax or Bak expression had significant reduction in their viability compared to the double knockout (DKO) MEFs"
same,Mitochondrial membrane potential (JC-1 dye),H460 cells,decrease in their mitochondrial outer membrane potential
same,Change in Bcl-2 conformation (BH3 domain exposure) in MDA-MB-231/Bcl-2 cells,Bcl-2; 48 h,changed conformation of Bcl-2 of was detected in MDA-MB-231/Bcl-2 cells
"CCOc1ccccc1NC(=O)c1cc(Cl)ccc1NC(=O)c1ccc(OC)cc1 [BFC1108, 5-chloro-N-(2-ethoxyphenyl)-2-[(4-methoxybenzoyl)amino]-benzamide]","Bcl-2 dependent effect on viability, Jurkat/Bcl-2 vs Jurkat/Vector","[1]; 48 h, 10% FBS",reduction in viability was seen compared to their Bcl-2 low-expressing control cells
same,"Bcl-2 selective reduction in viability, MDA-MB-231/Bcl-2 vs MDA-MB-231/Vector",[2]; 24 h,better Bcl-2 selective induction of cell death
same,"Bcl-2 dependent reduction in viability, MDA-MB-231/Bcl-2 vs Vector",[2]; 48 h,"dose dependent reduction in viability of Bcl-2-high expressing cells (MDA-MB-231/Bcl-2), compared to their vector controls"
same,Effect of Bcl-2 knockdown on viability effect in MDA-MB-468 cells,[3],"When Bcl-2 was knocked down, the cells were rescued from the effects of BFC1108"
same,Viability of normal mammary epithelial cells MCF-10A,"[4]; 48 h, 10% serum",No effect on the viability of MCF-10A cells
same,Effect on colony forming ability of low Bcl-2 expressing 231/Vector control cells,[5]; [7],not seen
same,Reduction in colony forming ability of MDA-MB-231/Bcl-2 cells compared to vehicle controls,[5]; [7],50%
same,Proteolysis of Bcl-2 loop domain,Bcl-2 loop domain,increased proteolysis of Bcl-2 loop domain was noticeable by 4 min time point
same,Bax/Bak dependence of effect on MEF viability,[6],"no effect on viability in DKO MEFs, whereas Bax^−/− MEF and Bak^−/− MEF have diminished viability"
same,Mitochondrial membrane potential (JC-1 dye),H460 cells,decreased mitochondrial membrane potential
same,Change in Bcl-2 conformation (BH3 domain exposure) in MDA-MB-231/Bcl-2 cells,Bcl-2; 48 h,changed conformation of Bcl-2 was detected
"CN(Cc1cnc2nc(N)nc(N)c2n1)c1ccc(C(=O)N[C@@H](CCC(=O)O)C(=O)O)cc1 [MTX, (2S)-2-[[4-[(2,4 diaminopteridin-6-yl)methylmethylamino]benzoyl]amino] pentanedioc acid]",Bcl-2 dependent effects in Jurkat Lymphoma cells,[1]; Bcl-2 low and high expressing Jurkat lymphoma cells treated for 72 hours with various concentrations,Yes
same,minimal effective concentration,"[1]; Homo sapiens, Jurkat lymphoma cells, 72 hours, n/d means no reduction was detected at concentrations tested, read-out: Lowest effective dose (minimal effective concentration that induced Bcl-2-dependent reduction in cell viability)",0.01 µM
same,Viability of Jurkat/Bcl-2 vs Vector under hypoxic conditions,"[1]; hypoxic conditions, 10% FBS, 24 h",significant reduction in viability of Jurkat/Bcl-2 cells compared to their Vector control
same,Bcl-2 dependent apoptosis with folate supplementation,[1]; supplemented with 1 μM of folic acid,Bcl-2 dependent apoptosis was still observed
same,"Bcl-2 selective reduction in viability, MDA-MB-231/Bcl-2 vs MDA-MB-231/Vector",[2]; 24 h,selectively induce more cell death in high-Bcl-2 expressing MDA-MB-231 cells
same,"Bcl-2 dependent reduction in viability, MDA-MB-231/Bcl-2 vs Vector","[2]; various concentrations, 24 h",reduced viability in MDA-MB-231/Bcl-2 cells significantly in comparison to the MDA-MB-231/Vector control cells
same,Effect of Bcl-2 knockdown on effect in MDA-MB-468 cells,"[3]; various concentrations, 24 h",Knockdown of Bcl-2 in MDA-MB-468 cells diminished the apoptotic effect of MTX
same,Viability of normal breast epithelial cells MCF-10A and HMEC,[4]; similar concentrations of MTX as in cancer cells,relatively unaffected
same,Reduction in colonies formed by MDA-MB-231/Bcl-2 cells compared to vector controls,"[5]; 10 μM MTX, 24 h",60%
same,Proteolysis pattern of Bcl-2 loop domain,"Bcl-2 loop domain; 1 μM methotrexate, trypsin",differential proteolysis pattern
same,Bax/Bak dependence of effect on MEF viability,[6],viability of Bax^−/− Bak^−/− MEF (DKO) cells was not effected
same,viability at 1 µM,"[6]; read-out: Viability, Bak−/− MEF",~40%
same,viability at 1 µM,"[6]; read-out: Viability, Bax−/− MEF",~40%
same,viability at 1 µM,"[6]; read-out: Viable cells, wild type MEF",~30%
same,Mitochondrial membrane potential (JC-1 dye),H460 cells,decrease in their mitochondrial membrane potential
same,Change in Bcl-2 conformation (BH3 domain exposure) in H460 cells,Bcl-2; 24 h,also observed in H460 cells
same,Change in Bcl-2 conformation (BH3 domain exposure) in MDA-MB-231/Bcl-2 cells,Bcl-2; 24 h,considerable shift in the staining of MTX treated cells indicating change in the Bcl-2 conformation
